Test results: PubChem BioAssay AID2060609 (Molecular Pharmacology Branch, DTP, NCI, 2025)
Where “and” joins values, the source holds several entries; their conditions need not be identical. Identical values can stand only once.

Tested on: 855422-203-R-J1-PDC complex spheroids, viability
Assay: Anticancer human tumor 855422-203-R-J1-PDC patient-derived bladder carcinoma cell line growth inhibition [CLK]
Conditions: for viability, T/C: stronger effect = lower value
How it was run: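 Patient-derived tumor cells grown as complex spheroids with HUVEC endothelial cells and mesenchymal stem cells, treated with drug combinations. Concentrations descend in half-log steps from near clinical Cmax, or from 10 microM if Cmax unknown.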

[1] = curve of first compound, second compound 0.0316 µM
[2] = curve of first compound, second compound 0.1 µM
[3] = curve of first compound, second compound 0.316 µM
[4] = curve of first compound, second compound 1 µM
[5] = curve of first compound, second compound 3.16 µM
[6] = curve of first compound, second compound 10 µM
[7] = second compound 0.0316 µM, first compound 0.0316 µM
[8] = second compound 0.0316 µM, first compound 0.1 µM
[9] = second compound 0.0316 µM, first compound 0.316 µM
[10] = second compound 0.0316 µM, first compound 1 µM
[11] = second compound 0.0316 µM, first compound 3.16 µM
[12] = second compound 0.0316 µM, first compound 10 µM
[13] = second compound 0.1 µM, first compound 0.0316 µM
[14] = second compound 0.1 µM, first compound 0.1 µM
[15] = second compound 0.1 µM, first compound 0.316 µM
[16] = second compound 0.1 µM, first compound 1 µM
[17] = second compound 0.1 µM, first compound 3.16 µM
[18] = second compound 0.1 µM, first compound 10 µM
[19] = second compound 0.316 µM, first compound 0.0316 µM
[20] = second compound 0.316 µM, first compound 0.1 µM
[21] = second compound 0.316 µM, first compound 0.316 µM
[22] = second compound 0.316 µM, first compound 1 µM
[23] = second compound 0.316 µM, first compound 3.16 µM
[24] = second compound 0.316 µM, first compound 10 µM
[25] = second compound 1 µM, first compound 0.0316 µM
[26] = second compound 1 µM, first compound 0.1 µM
[27] = second compound 1 µM, first compound 0.316 µM
[28] = second compound 1 µM, first compound 1 µM
[29] = second compound 1 µM, first compound 3.16 µM
[30] = second compound 1 µM, first compound 10 µM
[31] = second compound 3.16 µM, first compound 0.0316 µM
[32] = second compound 3.16 µM, first compound 0.1 µM
[33] = second compound 3.16 µM, first compound 0.316 µM
[34] = second compound 3.16 µM, first compound 1 µM
[35] = second compound 3.16 µM, first compound 3.16 µM
[36] = second compound 3.16 µM, first compound 10 µM
[37] = second compound 10 µM, first compound 0.0316 µM
[38] = second compound 10 µM, first compound 0.1 µM
[39] = second compound 10 µM, first compound 0.316 µM
[40] = second compound 10 µM, first compound 1 µM
[41] = second compound 10 µM, first compound 3.16 µM
[42] = second compound 10 µM, first compound 10 µM
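Note: spheroids exposed to drugs for seven days before readout.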
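Throughout, for viability, T/C: 100% = DMSO vehicle control wells.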

## O=C(c1cc(Cc2n[nH]c(=O)c3ccccc23)ccc1F)N1CCN(C(=O)C2CC2)CC1 + CN1CCN(c2cc(C(=O)Nc3cc4cc(-c5cnn(C)c5)ccc4cn3)ccn2)CC1
[1]
  IC50: > 10000 nM
[2]
  IC50: > 10000 nM
[3]
  IC50: < 31.6 nM
[4]
  IC50: < 31.6 nM
[5]
  IC50: < 31.6 nM
[6]
  IC50: < 31.6 nM
[7]
  viability, T/C: 97.5%
[8]
  viability, T/C: 93.4%
[9]
  viability, T/C: 94.5%
[10]
  viability, T/C: 119%
[11]
  viability, T/C: 106%
[12]
  viability, T/C: 91.2%
[13]
  viability, T/C: 79.5%
[14]
  viability, T/C: 82%
[15]
  viability, T/C: 86.8%
[16]
  viability, T/C: 89.6%
[17]
  viability, T/C: 83.5%
[18]
  viability, T/C: 80.8%
[19]
  viability, T/C: 7.7%
[20]
  viability, T/C: 9.07%
[21]
  viability, T/C: 12.2%
[22]
  viability, T/C: 13.9%
[23]
  viability, T/C: 9.53%
[24]
  viability, T/C: 7.3%
[25]
  viability, T/C: 0.24%
[26]
  viability, T/C: 0.27%
[27]
  viability, T/C: 0.24%
[28]
  viability, T/C: 0.2%
[29]
  viability, T/C: 2.03%
[30]
  viability, T/C: 0.16%
[31]
  viability, T/C: 0.76%
[32]
  viability, T/C: 0.67%
[33]
  viability, T/C: 1.9%
[34]
  viability, T/C: 0.61%
[35]
  viability, T/C: 1.44%
[36]
  viability, T/C: 0.45%
[37]
  viability, T/C: 0.43%
[38]
  viability, T/C: 0.39%
[39]
  viability, T/C: 0.38%
[40]
  viability, T/C: 0.33%
[41]
  viability, T/C: 0.7%
[42]
  viability, T/C: 0.32%

## C=C(F)C(=O)N1CCN(c2nc(OCC3CCCN3C)nc3c2CCN(c2cccc4cccc(Cl)c24)C3)CC1CC#N (configuration not stated)
Compound 0.0316 µM
  viability, T/C: 94.2% and 121%
Compound 0.1 µM
  viability, T/C: 111% and 115%
Compound 0.316 µM
  viability, T/C: 93.3% and 113%
Compound 1 µM
  viability, T/C: 111% and 123%
Compound 3.16 µM
  viability, T/C: 11.1% and 26%
Compound 10 µM
  viability, T/C: 1.51% and 0.48%
Curve of compound
  IC50: 1940 nM and 2340 nM

## NC(=O)C(=Cn1cnc(-c2cc(C(F)(F)F)cc(C(F)(F)F)c2)n1)c1cncnc1
Compound 0.00949 µM
  viability, T/C: 133% and 162%
Compound 0.03 µM
  viability, T/C: 110% and 130%
Compound 0.0949 µM
  viability, T/C: 30.4% and 25.3%
Compound 0.3 µM
  viability, T/C: 11.7% and 9.71%
Compound 0.949 µM
  viability, T/C: 10.5% and 7.35%
Compound 3 µM
  viability, T/C: 4.97% and 5%
Curve of compound
  IC50: 71.7 nM and 72.3 nM

## Nc1ccccc1NC(=O)c1ccc(CNC(=O)OCc2cccnc2)cc1 + CNC(=O)c1ccc(Nc2nc(OC3CCCC3)c3c(-c4ccc5nc(C)oc5c4)c[nH]c3n2)c(OC)c1
[1]
  IC50: 1120 nM
[2]
  IC50: < 31.6 nM
[3]
  IC50: < 31.6 nM
[4]
  IC50: < 31.6 nM
[5]
  IC50: < 31.6 nM
[6]
  IC50: < 31.6 nM
[7]
  viability, T/C: 77.8%
[8]
  viability, T/C: 81.3%
[9]
  viability, T/C: 79.9%
[10]
  viability, T/C: 49.4%
[11]
  viability, T/C: 22.4%
[12]
  viability, T/C: 1.4%
[13]
  viability, T/C: 46.5%
[14]
  viability, T/C: 43.9%
[15]
  viability, T/C: 44.9%
[16]
  viability, T/C: 27.7%
[17]
  viability, T/C: 21.1%
[18]
  viability, T/C: 1.14%
[19]
  viability, T/C: 20.8%
[20]
  viability, T/C: 16.2%
[21]
  viability, T/C: 16.9%
[22]
  viability, T/C: 18.2%
[23]
  viability, T/C: 15.3%
[24]
  viability, T/C: 0.51%
[25]
  viability, T/C: 18.5%
[26]
  viability, T/C: 17.9%
[27]
  viability, T/C: 14.9%
[28]
  viability, T/C: 13.2%
[29]
  viability, T/C: 10.4%
[30]
  viability, T/C: 0.17%
[31]
  viability, T/C: 17.5%
[32]
  viability, T/C: 18.6%
[33]
  viability, T/C: 12%
[34]
  viability, T/C: 15.3%
[35]
  viability, T/C: 7.63%
[36]
  viability, T/C: 0.29%
[37]
  viability, T/C: 19.9%
[38]
  viability, T/C: 13.6%
[39]
  viability, T/C: 16.6%
[40]
  viability, T/C: 12.1%
[41]
  viability, T/C: 8.45%
[42]
  viability, T/C: 0.69%

## CC(C)CC(NC(=O)C(Cc1ccccc1)NC(=O)c1cnccn1)B(O)O (configuration not stated)
Compound 0.000949 µM
  viability, T/C: 2.8% and 2.47%
Compound 0.003 µM
  viability, T/C: 0.77% and 0.18%
Compound 0.00949 µM
  viability, T/C: 0.19% and 0.16%
Compound 0.03 µM
  viability, T/C: 0.36% and 0.17%
Compound 0.0949 µM
  viability, T/C: 0.46% and 0.15%
Compound 0.3 µM
  viability, T/C: 0.24% and 0.15%
Curve of compound
  IC50: < 0.949 nM

## CC1COCCN1c1cc(C2(S(C)(=N)=O)CC2)nc(-c2ccnc3[nH]ccc23)n1 (configuration not stated)
Compound 0.0316 µM
  viability, T/C: 127% and 114%
Compound 0.1 µM
  viability, T/C: 108% and 101%
Compound 0.316 µM
  viability, T/C: 115% and 113%
Compound 1 µM
  viability, T/C: 93.2% and 103%
Compound 3.16 µM
  viability, T/C: 32.1% and 23.6%
Compound 10 µM
  viability, T/C: 11.2% and 8.31%
Curve of compound
  IC50: 2260 nM and 2160 nM
